Test results: ChEMBL document CHEMBL5303764, “Data for DCP probe BI-3812” (2023)

Experiments:
[1] = molecular target: Dual specificity mitogen-activated protein kinase kinase 1 (Homo sapiens) (UniProt Q02750); experiment: MAP2K1 Invitrogen Lab (UK) kinase screen (BI); settings: Compound concentration 1.0 uM
[2] = molecular target: Histamine H1 receptor (Homo sapiens) (UniProt P35367); settings: Compound concentration 10.0 uM
[3] = molecular target: 5-hydroxytryptamine receptor 1B (Homo sapiens) (UniProt P28222); settings: Compound concentration 10.0 uM
[4] = molecular target: Leucine-rich repeat serine/threonine-protein kinase 2 (Homo sapiens) (UniProt Q5S007); experiment: LRRK2 Invitrogen Lab (UK) kinase screen (BI); settings: Compound concentration 1.0 uM
[5] = molecular target: 5-hydroxytryptamine receptor 2C (Homo sapiens) (UniProt P28335); settings: Compound concentration 10.0 uM
[6] = molecular target: Platelet-derived growth factor receptor alpha (Homo sapiens) (UniProt P16234); experiment: PDGFRA Invitrogen Lab (UK) kinase screen (BI); settings: Compound concentration 1.0 uM
[7] = molecular target: Casein kinase I isoform alpha (Homo sapiens) (UniProt P48729); experiment: CSNK1A1 Invitrogen Lab (UK) kinase screen (BI); settings: Compound concentration 1.0 uM
[8] = molecular target: Beta-2 adrenergic receptor (Homo sapiens) (UniProt P07550); settings: Compound concentration 10.0 uM
[9] = molecular target: Mu-type opioid receptor (Homo sapiens) (UniProt P35372); settings: Compound concentration 10.0 uM
[10] = molecular target: BDNF/NT-3 growth factors receptor (Homo sapiens) (UniProt Q16620); experiment: NTRK2 Invitrogen Lab (UK) kinase screen (BI); settings: Compound concentration 1.0 uM
[11] = molecular target: Beta-1 adrenergic receptor (Homo sapiens) (UniProt P08588); experiment: BETA1/HUM Eurofins SafetyScreen44 (BI); settings: Compound concentration 10.0 uM
[12] = molecular target: Mitogen-activated protein kinase kinase kinase 8 (Homo sapiens) (UniProt P41279); experiment: MAP3K8 Invitrogen Lab (UK) kinase screen (BI); settings: Compound concentration 1.0 uM
[13] = molecular target: Beta-2 adrenergic receptor (Homo sapiens) (UniProt P07550); experiment: BETA2/HUM Eurofins SafetyScreen44 (BI); settings: filed as antagonist, Compound concentration 10.0 uM
[14] = molecular target: Alpha-2B adrenergic receptor (Homo sapiens) (UniProt P18089); settings: Compound concentration 10.0 uM
[15] = molecular target: Muscarinic acetylcholine receptor M4 (Homo sapiens, UniProt P08173); experiment: GPCRScan assay: inhibition of M4; set-up: radioligand conc. used [nm] 0.3 – 1.0, parental cells stable CHO
[16] = molecular target: Ribosomal protein S6 kinase alpha-5 (Homo sapiens) (UniProt O75582); experiment: RPS6KA5 Invitrogen Lab (UK) kinase screen (BI); settings: Compound concentration 1.0 uM
[17] = molecular target: Dual specificity mitogen-activated protein kinase kinase 6 (Homo sapiens) (UniProt P52564); experiment: MAP2K6 Invitrogen Lab (UK) kinase screen (BI); settings: Compound concentration 1.0 uM
[18] = molecular target: 5-hydroxytryptamine receptor 3A (Homo sapiens) (UniProt P46098); settings: Compound concentration 10.0 uM
5-hydroxytryptamine receptor 3A (Homo sapiens), sequence (P46098 whole entry): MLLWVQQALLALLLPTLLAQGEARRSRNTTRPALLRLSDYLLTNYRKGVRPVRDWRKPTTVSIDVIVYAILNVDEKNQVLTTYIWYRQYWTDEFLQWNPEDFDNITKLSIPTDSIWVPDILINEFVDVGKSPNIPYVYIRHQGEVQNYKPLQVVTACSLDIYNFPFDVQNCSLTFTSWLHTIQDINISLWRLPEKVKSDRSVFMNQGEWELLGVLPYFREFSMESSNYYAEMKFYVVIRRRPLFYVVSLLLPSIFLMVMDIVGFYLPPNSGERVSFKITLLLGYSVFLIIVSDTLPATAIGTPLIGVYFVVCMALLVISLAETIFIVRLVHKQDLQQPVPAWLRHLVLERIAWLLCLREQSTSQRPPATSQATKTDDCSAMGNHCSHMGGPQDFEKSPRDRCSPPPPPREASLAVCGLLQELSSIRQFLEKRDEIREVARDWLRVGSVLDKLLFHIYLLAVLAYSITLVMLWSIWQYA

Beta-2 adrenergic receptor (Homo sapiens), sequence (P07550 whole entry, looked up): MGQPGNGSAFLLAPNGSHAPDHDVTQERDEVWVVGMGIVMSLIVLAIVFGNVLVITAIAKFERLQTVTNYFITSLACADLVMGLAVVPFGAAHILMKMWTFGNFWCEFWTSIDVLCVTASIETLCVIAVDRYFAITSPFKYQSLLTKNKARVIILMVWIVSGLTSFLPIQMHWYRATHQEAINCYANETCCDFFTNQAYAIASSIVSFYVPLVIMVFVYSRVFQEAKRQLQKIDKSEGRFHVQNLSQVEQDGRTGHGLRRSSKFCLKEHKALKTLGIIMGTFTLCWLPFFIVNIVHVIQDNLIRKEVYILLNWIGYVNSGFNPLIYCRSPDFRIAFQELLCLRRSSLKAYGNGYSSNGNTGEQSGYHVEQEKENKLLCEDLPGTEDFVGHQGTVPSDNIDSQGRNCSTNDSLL
Muscarinic acetylcholine receptor M4, sequence (P08173 whole entry): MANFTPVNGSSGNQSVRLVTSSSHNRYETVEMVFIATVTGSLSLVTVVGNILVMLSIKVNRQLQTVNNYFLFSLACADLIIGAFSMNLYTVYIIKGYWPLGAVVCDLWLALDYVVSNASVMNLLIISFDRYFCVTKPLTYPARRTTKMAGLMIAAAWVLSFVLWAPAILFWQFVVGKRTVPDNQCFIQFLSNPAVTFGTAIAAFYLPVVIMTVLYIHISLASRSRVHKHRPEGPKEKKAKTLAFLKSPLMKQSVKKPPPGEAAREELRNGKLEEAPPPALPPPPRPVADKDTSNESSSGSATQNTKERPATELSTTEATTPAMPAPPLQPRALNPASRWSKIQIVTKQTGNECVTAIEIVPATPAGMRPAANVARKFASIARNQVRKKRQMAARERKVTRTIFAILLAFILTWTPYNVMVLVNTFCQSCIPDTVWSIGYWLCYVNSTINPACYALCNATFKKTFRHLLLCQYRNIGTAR
Histamine H1 receptor (Homo sapiens), sequence (P35367 whole entry): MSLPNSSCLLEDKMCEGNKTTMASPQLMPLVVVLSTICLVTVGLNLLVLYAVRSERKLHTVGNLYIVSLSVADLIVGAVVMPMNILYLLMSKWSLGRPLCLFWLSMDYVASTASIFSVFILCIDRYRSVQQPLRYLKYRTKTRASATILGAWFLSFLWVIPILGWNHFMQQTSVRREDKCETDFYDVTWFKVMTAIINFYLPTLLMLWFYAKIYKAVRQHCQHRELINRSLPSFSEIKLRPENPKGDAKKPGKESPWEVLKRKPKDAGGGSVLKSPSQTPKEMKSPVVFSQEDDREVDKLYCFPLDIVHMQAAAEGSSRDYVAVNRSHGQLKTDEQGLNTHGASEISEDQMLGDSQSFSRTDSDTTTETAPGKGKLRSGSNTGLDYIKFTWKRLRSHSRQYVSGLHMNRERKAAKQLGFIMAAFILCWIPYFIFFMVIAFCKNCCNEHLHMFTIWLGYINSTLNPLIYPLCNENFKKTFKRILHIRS
5-hydroxytryptamine receptor 1B (Homo sapiens), sequence (P28222 whole entry): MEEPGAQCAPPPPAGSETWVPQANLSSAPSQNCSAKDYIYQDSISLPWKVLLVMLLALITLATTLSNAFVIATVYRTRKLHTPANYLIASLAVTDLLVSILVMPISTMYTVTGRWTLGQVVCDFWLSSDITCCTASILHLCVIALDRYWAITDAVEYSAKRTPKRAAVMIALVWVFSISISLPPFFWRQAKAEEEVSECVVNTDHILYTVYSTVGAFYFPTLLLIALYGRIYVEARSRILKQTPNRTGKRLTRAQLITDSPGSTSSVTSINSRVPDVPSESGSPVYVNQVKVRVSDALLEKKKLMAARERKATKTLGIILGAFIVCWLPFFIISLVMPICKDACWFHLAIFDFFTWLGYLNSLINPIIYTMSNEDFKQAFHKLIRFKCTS
5-hydroxytryptamine receptor 2C (Homo sapiens), sequence (P28335 whole entry): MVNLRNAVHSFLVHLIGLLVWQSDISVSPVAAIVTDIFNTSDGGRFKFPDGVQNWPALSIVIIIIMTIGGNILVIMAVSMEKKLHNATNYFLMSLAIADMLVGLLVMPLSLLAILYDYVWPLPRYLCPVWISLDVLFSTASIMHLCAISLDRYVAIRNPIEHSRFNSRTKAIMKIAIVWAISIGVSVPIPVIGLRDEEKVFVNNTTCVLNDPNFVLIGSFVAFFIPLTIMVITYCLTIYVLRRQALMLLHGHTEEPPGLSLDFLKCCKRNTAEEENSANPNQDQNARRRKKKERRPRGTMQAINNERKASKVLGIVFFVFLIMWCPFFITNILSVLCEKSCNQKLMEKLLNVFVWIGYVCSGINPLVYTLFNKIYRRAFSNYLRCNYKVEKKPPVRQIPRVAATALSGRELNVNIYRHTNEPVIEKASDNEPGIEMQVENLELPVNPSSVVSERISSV
Mu-type opioid receptor (Homo sapiens), sequence (P35372 whole entry): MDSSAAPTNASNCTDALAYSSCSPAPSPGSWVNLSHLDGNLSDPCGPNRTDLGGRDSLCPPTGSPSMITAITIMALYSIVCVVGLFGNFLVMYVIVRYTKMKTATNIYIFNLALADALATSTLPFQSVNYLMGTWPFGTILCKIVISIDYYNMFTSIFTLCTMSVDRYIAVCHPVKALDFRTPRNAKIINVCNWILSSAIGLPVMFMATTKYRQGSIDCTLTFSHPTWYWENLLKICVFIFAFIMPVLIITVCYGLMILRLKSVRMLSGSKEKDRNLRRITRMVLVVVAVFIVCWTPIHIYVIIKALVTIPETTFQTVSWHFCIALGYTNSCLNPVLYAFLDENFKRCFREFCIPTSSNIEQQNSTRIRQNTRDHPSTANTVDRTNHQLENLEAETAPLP
Alpha-2B adrenergic receptor (Homo sapiens), sequence (P18089 whole entry): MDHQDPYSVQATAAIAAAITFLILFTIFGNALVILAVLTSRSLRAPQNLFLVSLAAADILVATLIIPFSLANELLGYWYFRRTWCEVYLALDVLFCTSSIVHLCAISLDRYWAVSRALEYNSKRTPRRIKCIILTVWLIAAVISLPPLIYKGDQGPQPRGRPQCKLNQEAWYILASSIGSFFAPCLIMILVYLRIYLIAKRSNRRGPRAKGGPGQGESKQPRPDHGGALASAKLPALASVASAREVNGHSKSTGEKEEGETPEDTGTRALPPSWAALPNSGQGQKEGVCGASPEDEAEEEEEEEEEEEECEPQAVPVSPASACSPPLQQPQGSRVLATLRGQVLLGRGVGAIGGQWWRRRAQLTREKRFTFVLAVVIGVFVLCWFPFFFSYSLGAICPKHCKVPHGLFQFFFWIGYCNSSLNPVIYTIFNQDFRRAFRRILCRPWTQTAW
Dual specificity mitogen-activated protein kinase kinase 1 (Homo sapiens), sequence (Q02750 whole entry): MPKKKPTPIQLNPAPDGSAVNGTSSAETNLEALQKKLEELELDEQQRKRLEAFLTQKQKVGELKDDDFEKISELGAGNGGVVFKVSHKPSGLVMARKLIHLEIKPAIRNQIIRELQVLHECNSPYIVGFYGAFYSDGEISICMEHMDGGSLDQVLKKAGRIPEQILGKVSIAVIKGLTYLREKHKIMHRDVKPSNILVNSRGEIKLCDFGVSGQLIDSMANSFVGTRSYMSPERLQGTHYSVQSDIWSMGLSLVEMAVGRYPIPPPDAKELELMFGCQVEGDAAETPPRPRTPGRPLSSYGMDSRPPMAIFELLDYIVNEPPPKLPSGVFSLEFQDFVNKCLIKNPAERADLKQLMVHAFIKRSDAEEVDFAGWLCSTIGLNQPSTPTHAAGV
Beta-1 adrenergic receptor (Homo sapiens), sequence (P08588 whole entry, looked up): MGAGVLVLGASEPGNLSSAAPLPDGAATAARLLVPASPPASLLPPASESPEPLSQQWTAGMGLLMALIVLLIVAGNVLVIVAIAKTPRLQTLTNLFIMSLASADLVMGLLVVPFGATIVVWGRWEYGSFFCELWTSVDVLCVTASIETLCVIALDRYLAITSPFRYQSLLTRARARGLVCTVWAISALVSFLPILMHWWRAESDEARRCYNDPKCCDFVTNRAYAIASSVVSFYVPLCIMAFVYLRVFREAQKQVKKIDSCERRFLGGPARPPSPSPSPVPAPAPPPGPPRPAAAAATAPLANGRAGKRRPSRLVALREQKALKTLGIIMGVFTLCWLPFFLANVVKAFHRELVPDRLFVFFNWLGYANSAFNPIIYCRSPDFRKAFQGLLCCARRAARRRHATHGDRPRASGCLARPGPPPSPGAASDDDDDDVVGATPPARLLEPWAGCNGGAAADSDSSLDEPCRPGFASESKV
Dual specificity mitogen-activated protein kinase kinase 6 (Homo sapiens), sequence (P52564 whole entry): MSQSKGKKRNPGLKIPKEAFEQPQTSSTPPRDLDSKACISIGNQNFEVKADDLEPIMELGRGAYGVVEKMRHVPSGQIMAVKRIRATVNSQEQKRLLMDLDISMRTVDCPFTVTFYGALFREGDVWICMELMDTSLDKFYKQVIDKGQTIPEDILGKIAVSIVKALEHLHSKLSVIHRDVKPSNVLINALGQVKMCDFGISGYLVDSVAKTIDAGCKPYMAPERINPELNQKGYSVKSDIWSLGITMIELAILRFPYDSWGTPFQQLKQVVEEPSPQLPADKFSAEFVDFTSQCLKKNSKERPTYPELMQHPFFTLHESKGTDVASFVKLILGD

CNC(=O)COc1cc2cc(Nc3nc(N4CCC(C(=O)N(C)C)CC4)ncc3Cl)cc(OC)c2n(C)c1=O
inactive: residual activity [1] 100% | inhibition [2] 2.93% | inhibition [3] 9.19% | residual activity [4] 111% | inhibition [5] -2.05% | residual activity [6] 88% | residual activity [7] 91% | inhibition [8] 1.38% | inhibition [9] 17.4% | residual activity [10] 88% | residual activity [11] 100% | residual activity [12] 86% | residual activity [13] 92% | inhibition [14] 20.7% | residual activity [16] 103% | residual activity [17] 112% | inhibition [18] 28.1%
851 nM: Ki ([15]; read-out: pKi (converted))
878 nM: Ki ([15]; read-out: Ki)
